Where two headings read alike, the source gives them in different places.

One assay concerns the target T1, Human cRaf1 (Homo sapiens, UniProt P04049).
T1 construct: poly-histidine (C); made in house
The experiment in a line: Raf kinase assay (cRaf1 assay / Raf/MEK cascade assay). It is filed as biochemical.

Assay [1] has as its system SW620 (human colon carcinoma cell line). The assay is described as follows: Cell Based Efficacy (MTT Assay), SW620. The note with it: SW-620, 72 hours with compound, 50% inhibitory concentration. How it is done:
(§1) The potency of compounds of the invention are tested for their ability to inhibit cell proliferation and cell viability. The metabolic conversion of 3-(4,5-dimethylthiazol-2-yl)-2,5-diphenyltetrazolium bromide (MTT, Sigma #M2128) to a reduced form is a commonly used measure of cellular viability. Following is the procedure:
(§2) Cells are maintained in 75 cm^2 tissue culture flasks until ready for use. The cells are grown and plated for the assay in Dulbecco's modified Eagle's media containing 10% fetal bovine serum. For example, the following cell lines can be used: a) human foreskin fibroblasts (HFF), b) HT29 (human colon carcinoma cell line), c) MDA-MB-468 (human breast carcinoma cell line), d) RKO (human colon adenocarcinoma cell line), e) SW620 (human colon carcinoma cell line), f) A549 (human lung carcinoma cell line), and g) MIA PACA (human pancreatic carcinoma cell line). Cells are maintained at 37° C. in 10% CO2, 90% humidified air. Cells are plated in 96-well tissue culture plates at the densities listed below. 100 μL of cell suspension is added to each well of the 96-well plate except the top row of the plate which contains no cells and serves as a reference for the spectrophotometer. […]
(§3) Cells are incubated overnight in Dulbecco's modified Eagle's media containing 10% fetal bovine serum at 37° C. in 10% CO2, 90% humidified air prior to dosing. Cells are dosed in 10 sequential 3-fold dilutions starting at 30 uM depending upon the solubility of the compound. Compounds with solubilities of less than 30 uM are dosed at the highest soluble concentration. Stock solutions of compounds are made in 100% dimethyl sulfoxide (DMSO). Stock solutions are diluted in Dulbecco's modified Eagle's media containing 100 ug/mL gentamicin and 0.3 to 0.6% DMSO at the twice the highest concentration to be placed on the cells. If compounds have been dissolved in DMSO the final concentration of DMSO on the cells is kept below 0.3%. 3-fold serial dilutions are performed on each compound to prepare 10 concentrations of the compound for dosing. 100 μL of diluted compound is added to the 100 μL of media currently on the dish. For each concentration of compound, 2-4 replicate wells are prepared.
(§4) Cells are returned to incubator and allowed to proliferate in the presence of compound for 72 hours before addition of MTT. MTT is prepared in phosphate buffered saline (Irvine Scientific #9240) at a concentration of 2mg/mL. 50 μL per well of MTT solution is added to the 200 μL of media to yield a final concentration of 0.4 mg/mL and plates are returned to the incubator for 4 hours. After 4 hours incubation the media, compound and MTT mixture is aspirated from the plates and 100 μL of 100% DMSO is added to each well in addition to 25 μL of Sorenson's Buffer (0.1M glycine, 0.1M NaCl, pH 10.5). Quantitation of metabolic reduction of MTT in each plate is performed by reading optical density at 570 nm wavelength on a Molecular Devices UVmax microplate reader. Growth inhibition curves and 50% inhibitory concentrations are determined using Microsoft Excel.
(§5) Table 4 illustrates the inhibitory activity of compounds of the present invention against a representative kinase (raf) and the cytotoxicity of compounds of the present invention against a broad range of human tumor cell lines.

Assay [2] relates to MIA PACA (human pancreatic carcinoma cell line). The experiment in a line: Cell Based Efficacy (MTT Assay), MIA PACA. Particulars: MIA PaCa-2, 72 hours with compound, 50% inhibitory concentration. How it is done:
as §1
(§6) Cells are maintained in 75 cm^2 tissue culture flasks until ready for use. The cells are grown and plated for the assay in Dulbecco's modified Eagle's media containing 10% fetal bovine serum. For example, the following cell lines can be used: a) human foreskin fibroblasts (HFF), b) HT29 (human colon carcinoma cell line), c) MDA-MB-468 (human breast carcinoma cell line), d) RKO (human colon adenocarcinoma cell line), e) SW620 (human colon carcinoma cell line), f) A549 (human lung carcinoma cell line), and g) MIA PACA (human pancreatic carcinoma cell line). Cells are maintained at 37° C. in 10% CO2, 90% humidified air. Cells are plated in 96-well tissue culture plates at the densities listed below. 100 μL of cell suspension is added to each well of the 96-well plate except the top row of the plate which contains no cells and serves as a reference for the spectrophotometer.
MIA PACA 3000 cells/well
as §3, §4, §5

The subject of assay [3] is MDA-MB-468 (human breast carcinoma cell line). The experiment in a line: Cell Based Efficacy (MTT Assay), MDA-MB-468. Particulars: 72 hours with compound, 50% inhibitory concentration. How it is done:
as §1, §2, §3, §4, §5

The subject of the next assay is PC-3 (prostate). The assay is described as follows: Cell Based Efficacy (MTT Assay), PC-3. The note with it: Homo sapiens; 72 hours with compound; 50% inhibitory concentration. On the procedure:
as §1, §6, §3, §4, §5

Assay [4] concerns HT29 (human colon carcinoma cell line). The assay is described as follows: Cell Based Efficacy (MTT Assay), HT29. The note with it: HT-29, 72 hours with compound, 50% inhibitory concentration. On the procedure:
as §1, §6, §3, §4, §5

For another assay, the system named is HT-29 xenograft. The assay is described as follows: Anti-tumor study in mice, HT-29 xenograft. The class given is in vivo. The note with it: 25 mg/kg. On the procedure: Mice are acquired from Taconic Farms and are maintained in Microisolator cages at 72±2° F. with a 12 hour light/dark cycle. Animals are housed at 4 mice per cage (28×17×12 cm ) and are given food and water ad libitum. Animals are numbered through the use of an ear punch or tail tattoo. All animal handling is done in a laminar flow hood.
Solid tumors are measured by caliper measurement through the skin. Caliper measurements are typically made twice weekly. Tumor weight is calculated using the equation (length×width^2 /2)=mg tumor weight.
Compounds are prepared in a vehicle consisting of DMSO, Cremophore and PBS.
Drug therapy begins when the average tumor size is approximately 40-50 mg, which usually is day 7 after implant. The dose schedule consists of one dose/day for 5 consecutive days. Drugs are administered at 3 or 4 dose-levels based upon the previously-determined maximally tolerated dose. A vehicle control group is also included. Drugs may be administered by either i.v., i.p., s.c., or oral (p.o.) transdermal routes or other alternative routes. Drugs may be administered via tail vein infusion. The injection volume administered for each mouse is usually 0.01-0.02 mL/g of body weight. In the case of i.v. injections and tail vein infusion animals are restrained in a Broome restrainer during handling. Animal are fasted overnight prior to p.o. dosing. […]

Where [5] appears, read: Table 3, read-out: Raf Kinase activity.

T1 sequence (P04049 whole entry): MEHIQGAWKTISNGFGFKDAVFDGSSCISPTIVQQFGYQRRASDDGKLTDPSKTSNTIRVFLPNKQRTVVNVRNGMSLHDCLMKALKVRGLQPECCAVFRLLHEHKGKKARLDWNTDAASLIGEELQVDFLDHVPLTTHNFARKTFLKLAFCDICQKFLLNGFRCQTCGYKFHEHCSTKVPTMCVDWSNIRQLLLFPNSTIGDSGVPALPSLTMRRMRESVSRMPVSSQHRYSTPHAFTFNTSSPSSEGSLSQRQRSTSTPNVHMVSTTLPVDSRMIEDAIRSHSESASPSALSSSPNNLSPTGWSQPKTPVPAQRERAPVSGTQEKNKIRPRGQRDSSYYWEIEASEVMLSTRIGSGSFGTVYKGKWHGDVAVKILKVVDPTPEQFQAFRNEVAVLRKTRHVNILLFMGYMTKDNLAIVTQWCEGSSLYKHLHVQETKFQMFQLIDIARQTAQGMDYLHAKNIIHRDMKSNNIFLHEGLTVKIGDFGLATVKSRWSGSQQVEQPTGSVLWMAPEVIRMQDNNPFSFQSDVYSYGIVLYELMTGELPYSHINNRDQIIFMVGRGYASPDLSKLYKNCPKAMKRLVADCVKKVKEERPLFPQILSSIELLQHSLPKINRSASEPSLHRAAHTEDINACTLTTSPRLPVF

On to `N#Cc1ccc2c(c1)C(=Cc1cc(Br)c(O)c(Br)c1)C(=O)N2` [Example 1, 3-(3,5-Dibromo-4-hydroxy-benzylidine)-2-oxo-2,3-dihydro-1H-indole-5-carbonitrile], for which the IC50 at Human cRaf1 (setting [5]) is below 1000 nM; on Human cRaf1 (Table 4, read-out: Raf), below 500 nM; in assay [1], 5 to 50 µM; in assay [2], 5 to 50 µM; in assay [3] it was 5 to 50 µM; with PC-3 (prostate), 5 to 50 µM. In addition, the IC50 in assay [4] was in the range of 5 to 50 µM.
`CCOc1cc(C=C2C(=O)Nc3ccc(C(=O)c4ccccc4)cc32)cc(Br)c1O` [Example 8, 5-Benzoyl-3-(3-bromo-5-ethoxy-4-hydroxy-benzylidene)-1,3-dihydro-indol-2-one]: the IC50 was below 1000 nM on Human cRaf1 (setting [5]); below 500 nM at Human cRaf1 (Table 4, read-out: Raf); 5 to 50 µM in assay [1]; 5 to 50 µM in assay [2]; 5 to 50 µM in assay [3]; 5 to 50 µM in the assay on PC-3 (prostate). The IC50 in assay [4] lay within 5 to 50 µM.
For `NCc1ccc2c(c1)C(=Cc1cc(Br)c(O)c(Br)c1)C(=O)N2` [Example 25, 5-Aminomethyl-3-(3,5-dibromo-4-hydroxy-benzylidene)-1,3-dihydro-indol-2-one], the IC50 at Human cRaf1 (setting [5]) was in the range of 1000 to 10000 nM; at Human cRaf1 (Table 4, read-out: Raf) it was 500 to 5000 nM; in assay [1] it was 5 to 50 µM; in assay [2] it was 5 to 50 µM; in assay [3], 5 to 50 µM; with PC-3 (prostate) it was 5 to 50 µM. Moreover, the IC50 in assay [4] is 5 to 50 µM.
For the molecule `O=C1Nc2ccc(C(=O)CCl)cc2C1=Cc1cc(Br)c(O)c(Br)c1` [Example 84, 5-(2-Chloro-acetyl)-3-(3,5-dibromo-4-hydroxy-benzylidene)-1,3-dihydro-indol-2-one], the IC50 on Human cRaf1 (setting [5]) was below 1000 nM. For the same molecule, the “Tumor Response % Inhibition @ mg/kg” value in the assay with HT-29 xenograft is 50%.
With `O=C1Nc2ccc3ncccc3c2C1=Cc1cc(Br)c(O)c(Br)c1` [Example 119, 1-(3,5-Dibromo-4-hydroxy-benzylidene)-1,3-dihydro-pyrrolo[3,2-f]quinolin-2-one], the IC50 was below 1000 nM at Human cRaf1 (setting [5]); below 500 nM on Human cRaf1 (Table 4, read-out: Raf); 0.5 to 5 µM in assay [1]; 0.5 to 5 µM in assay [2]; 0.5 to 5 µM in assay [3]; 0.5 to 5 µM in the assay with PC-3 (prostate). Also, the IC50 in assay [4] is 0.5 to 5 µM.
On to `O=C1Nc2ccc3ncsc3c2C1=Cc1cc(Br)c(O)c(Br)c1` [Example 121, 8-(3,5-Dibromo-4-hydroxy-benzylidine)-6,8-dihydro-1-thia-3,6-diaza-as-indacen-7-one], for which the IC50 is below 1000 nM on Human cRaf1 (setting [5]); below 500 nM at Human cRaf1 (Table 4, read-out: Raf); 0.5 to 5 µM in assay [1]; 5 to 50 µM in assay [2]; 0.5 to 5 µM in assay [3]; 0.5 to 5 µM in assay [4].
Consider `Cc1nc(-c2ccc3c(c2)C(=Cc2cc([N+](=O)[O-])c(O)c([N+](=O)[O-])c2)C(=O)N3)cs1` [Example 130, 3-(3,5-Dinitro-4-hydroxy-benzylidene)-5-(2-methyl-thiazol-4-yl)-1,3-dihydro-indol-2-one], for which the IC50 on Human cRaf1 (setting [5]) was below 1000 nM; on Human cRaf1 (Table 4, read-out: Raf), below 500 nM; in assay [1] it was 5 to 50 µM; in assay [2], 5 to 50 µM; in assay [3], 5 to 50 µM; in the assay with PC-3 (prostate), above 50 µM. The IC50 in assay [4] is above 50 µM.
For the molecule `O=C1Nc2cc(Br)ccc2C1=Cc1cc(Cl)c(O)c(Cl)c1` [Example 133, 6-Bromo-3-(3,5-dichloro-4-hydroxy-benzylidene)-1,3-dihydro-indol-2-one], the IC50 was below 1000 nM at Human cRaf1 (setting [5]); below 500 nM on Human cRaf1 (Table 4, read-out: Raf); 5 to 50 µM in assay [1]; 5 to 50 µM in assay [2]; 0.5 to 5 µM in assay [3]; 5 to 50 µM in the assay with PC-3 (prostate). Besides, the IC50 in assay [4] lay within 0.5 to 5 µM.
For the molecule `Cn1nnc(-c2ccc3c(c2)C(=Cc2cc(Br)c(O)c(Br)c2)C(=O)N3)n1` [Example 143, 3-(3,5-Dibromo-4-hydroxy-benzylidene)-5-(2-methyl-2H-tetrazol-5-yl)-1,3-dihydro-indol-2-one], the IC50 on Human cRaf1 (setting [5]) was below 1000 nM; at Human cRaf1 (Table 4, read-out: Raf), below 500 nM; in assay [1], 0.5 to 5 µM; in assay [3], 0.5 to 5 µM; in assay [4] it was 0.5 to 5 µM.
For `C=Cc1ccc2c(c1)NC(=O)C2=Cc1cc(Br)c(O)c(Br)c1` [Example 176, 3-[(3,5-Dibromo-4-hydroxyphenyl)methylidene]-6-vinyl-1,3-dihydro-2H-indol-2-one], the IC50 on Human cRaf1 (setting [5]) was below 1000 nM.
On the same count and under the same terms, with `COC(=O)c1sccc1-c1ccc2c(c1)C(=Cc1cc(Br)c(O)c(Br)c1)C(=O)N2` [Example 177, Methyl 3-3-[(3,5 dibromo-4-hydroxyphenyl)methylidene]-2-oxo-2,3-dihydro-1H-indol-5-yl-2-thiophenecarboxylate] the figure was below 1000 nM.
The same measure, in the same setting: with `N#Cc1ccccc1-c1ccc2c(c1)C(=Cc1cc(Br)c(O)c(Br)c1)C(=O)N2` [Example 178, 2-3-[(3,5 Dibromo-4-hydroxyphenyl)methylidene]-2-oxo-2,3-dihydro-1H-indol-5-ylbenzonitrile] the figure was below 1000 nM.
On the same count and under the same terms, with `N#Cc1ccc2c(c1)NC(=O)C2=Cc1cc(Br)c(O)c(Br)c1` [Example 179, 3-[(3,5-Dibromo-4-hydroxyphenyl)methylidene]-2-oxo-6-indolinecarbonitrile] the figure was below 1000 nM; with `CN(C)CCCNc1nc(-c2ccc3c(c2)C(=Cc2cc(Br)c(O)c(Br)c2)C(=O)N3)cs1` [Example 180, 3-[(3,5-Dibromo-4-hydroxyphenyl)methylidene]-5-(2-[3-(dimethylamino)propyl]amino-1,3-thiazol-4-yl)-1,3-dihydro-2H-indol-2-one], below 1000 nM; with `O=C1Nc2ccc(C(=O)NCc3ccncc3)cc2C1=Cc1cc(Br)c(O)c(Br)c1` [Example 181, 3-[(3,5-dibromo-4-hydroxyphenyl)methylidene]-2-oxo-N-(4-pyridinylmethyl)-1,2-dihydro-3H-indole-5-carboxamide], below 1000 nM.

The values above are taken from US6268391A, “Benzylidene-1,3-dihydro-indol-2-one derivatives a receptor tyrosine kinase inhibitors, particularly of Raf kinases” (Glaxo Wellcome Inc., priority 1997, dated 2001).
